Experimental findings from ChEMBL document CHEMBL4422617, “Recent advances in the discovery of small molecules targeting glioblastoma” (Eur J Med Chem, 2019) are described below.

The nature of experiment [1]: Antiproliferative activity against human D456 cells after 7 days […] by CellTiter Glo assay. In kind it is functional, cell-based. The following applies: 168 h. For orientation: Tetrazolium assays rely on reduction of a dye to a coloured formazan, in cell work by metabolically active cells.
Experiment [2] has as its system U-251. Put plainly: Antiproliferative activity against human U251 cells after 24 hrs by SRB assay. The experiment is classed as functional, cell-based. The note with it: U-251, 24 h. For orientation: Sulforhodamine B stains cellular protein and so reports cell mass.
The target in a further experiment is Histone deacetylase. Put plainly: Inhibition of mouse liver HDAC using Boc-Lys (Ac)-AMC as substrate preincubated for 5 mins followed by substrate addition and measured after 30 mins by fluorescence assay.
A further experiment has as its system SNB-19. Put plainly: Antiproliferative activity against human SNB19 cells after 72 hrs by WST-1 assay. The note with it: SNB-19, 72 h. In kind it is functional, cell-based.
Experiment [3] is described as follows: Antiproliferative activity against human U3046MG cells by CellTiter-Glo assay. The experiment is classed as functional, cell-based. (In general: In ATP-based viability assays light output follows the ATP content of the culture.)
A short description of experiment [4]: Antiproliferative activity against human U3005MG cells by CellTiter-Glo assay. The experiment is classed as functional, cell-based.
Experiment [5] is described as follows: Cytotoxicity against patient derived GSC after 96 hrs by CellTiter-Glo assay. The experiment is classed as functional, Homo sapiens.
A further experiment has as its system U373 MG. Put plainly: Antiproliferative activity against human U373MG cells after 48 hrs by MTS assay. In kind it is functional, cell-based, U-373MG ATCC.
Experiment [6] concerns U-87 MG. Put plainly: Antiproliferative activity against human U87MG cells after 48 hrs by MTS assay. The experiment is classed as functional, cell-based, U-87MG ATCC.
The subject of the next experiment is LN-229. Put plainly: Inhibition of cell proliferation of human LN229 cells at 5 uM. The experiment is classed as functional.
The test system of experiment [7] is U-251. Put plainly: Inhibition of cell proliferation of human U251 cells at 5 uM. In kind it is functional.
Experiment [8] concerns U-87 MG. Put plainly: Inhibition of cell proliferation of human U87 cells over-expressing EGFRvIII at 5 uM. In kind it is functional, U-87MG ATCC.
Experiment [9] deals with U-87 MG. Put plainly: Antiproliferative activity against human U87 cells. In kind it is functional, cell-based, U-87MG ATCC.
The subject of experiment [10] is U-87 MG. Put plainly: Antiproliferative activity against human U87MG cells after 96 hrs. In kind it is functional, U-87MG ATCC.
The test system of experiment [11] is U-87 MG. Put plainly: Antitumor activity against human U87MG cells xenografted in nude-Fox1nu mouse assessed as tumor growth inhibition at 150 mg/kg bid relative to control. The experiment is classed as functional, U-87MG ATCC. The following applies: read-out: TGI.
Experiment [12] has as its system U-87 MG. Put plainly: Antiproliferative activity against human U87MG cells after 96 hrs by SRB assay. In kind it is functional, U-87MG ATCC.
Experiment [13] relates to U-87 MG. Put plainly: Antiproliferative activity against human U87MG cells after 72 hrs by MTT assay. The experiment is classed as functional, cell-based, U-87MG ATCC.
A short description of experiment [14]: Antiproliferative activity against human GBM95 cells after 72 hrs by MTT assay. The experiment is classed as functional, cell-based.
Experiment [15] can be described thus: Antiproliferative activity against human RN1 cells assessed as reduction in cell viability after 72 hrs in presence of irradiation by AlamarBlue assay. The experiment is classed as functional, cell-based. The note with it: RN1, light or radiation study.
For experiment [16], the system named is U-251. Put plainly: Antiproliferative activity against human U251 cells assessed as reduction in cell viability after 72 hrs in presence of irradiation by AlamarBlue assay. In kind it is functional, cell-based. The note with it: U-251, light or radiation study.
Experiment [17] in a line: Antiproliferative activity against human RN1 cells assessed as reduction in cell viability after 72 hrs by AlamarBlue assay. In kind it is functional, cell-based. The note with it: RN1, 72 h.
Experiment [18] concerns U-251. Put plainly: Antiproliferative activity against human U251 cells after 24 hrs by MTT assay. The experiment is classed as functional, cell-based. The following applies: U-251, 24 h.
Experiment [19] deals with U-251. Put plainly: Antiproliferative activity against human U251MG cells after 120 hrs by SRB assay. The note with it: U-251, 120 h. In kind it is functional, cell-based.
Experiment [20] concerns U-251. Put plainly: Antiproliferative activity against human U251 cells after 72 hrs by coulter counting analysis. The experiment is classed as functional, cell-based. The following applies: U-251, 72 h.
In experiment [21] the test system is U-87 MG. Put plainly: Antiproliferative activity against human U87MG cells after 72 hrs by coulter counting analysis. The experiment is classed as functional, cell-based, U-87MG ATCC.
Experiment [22] can be described thus: Antiproliferative activity against human DBTRG cells after 72 hrs by coulter counting analysis. The experiment is classed as functional, cell-based.
For experiment [23], the system named is U-251. Put plainly: Antiproliferative activity against human U251 cells after 120 hrs by WST-1 assay. In kind it is functional, cell-based. The following applies: U-251, 120 h.
Experiment [24] in a line: Antiproliferative activity against mouse GL26 cells after 120 hrs by WST-1 assay. In kind it is functional, cell-based. The following applies: GL26, 120 h.

What is called IC50 is the midpoint of a concentration-inhibition curve. Lower therefore signals higher potency. What is called EC50 is the concentration that produces a half-maximal response. The inhibition is the drop in the measured response relative to a control, in per cent. Lower therefore signals little suppression. Broadly, the GI50 is the concentration at which growth is held to half of that of the control. Higher therefore signals less potent growth inhibition.

Values after ≈ are worked out from the molar mass of the structure shown.

In experiment [1], `O=C1CC(c2ccc(-c3cc[nH]n3)s2)c2cc(N3CCNC3=O)ccc2N1` (stereo not given) displayed an IC50 of 1690 nM.

Regarding `COc1ccc2c(c1)c(=O)c(C(=O)Nc1nc3ccccc3s1)cn2CCCCCC(=O)NO`, the half-maximal inhibitory concentration (IC50) in the experiment on U-251 [2] came out at 800 nM; against Histone deacetylase, 28 nM.

Take `Cn1cnc2nc(Cl)nc(SCC#CCN3CCCC3)c21`: a half-maximal response in the experiment on SNB-19 (EC50) required 5 µg/mL (≈ 15.5 µM).

With `CN1CCN(CCCN2c3ccccc3Sc3ccc(C(F)(F)F)cc32)CC1` [TRIFLUOPERAZINE], the EC50 was 1340 nM in experiment [3] and 1850 nM in experiment [4].

In the case of `O=C(CCCCCn1cc(C(=O)Nc2nc3ccccc3s2)c(=O)c2ccccc21)NO`, the IC50 was 700 nM with U-251 [2] and 1.5 nM at Histone deacetylase.

Regarding `CCN(CC)C(=S)SSC(=S)N(CC)CC`, half-maximal inhibition in experiment [5] (IC50) was put at 31.1 nM. In other words, the double-digit nanomolar range.

Regarding `O=C1[C@@H]2CS[C@]3(C(=O)Nc4ccccc43)N2C(=O)N1Cc1ccc(Cl)cc1`, the IC50 in the experiment on U373 MG was 5700 nM; in the experiment with U-87 MG [6], 2500 nM.

For `O=c1[nH]c2ncc(-c3ccc(-c4nc[nH]n4)cc3)nc2n1CCC1CCOCC1`, the inhibition at 5 µM with LN-229, in the experiment on U-251 [7] and in the experiment with U-87 MG [8] was 60% throughout.

In the case of `NS(=O)(=O)c1cccc2c1C(=O)c1cccc(O)c1C2=O`, it took 210 nM to reach half-maximal inhibition in the experiment on U-87 MG [9] (IC50).

On to `CS(=O)(=O)N1CCN(Cc2cc3nc(-c4cccc5[nH]ncc45)nc(N4CCOCC4)c3s2)CC1` [PICTILISIB], for which the GI50 in the experiment on U-87 MG [10] was 70 nM. The inhibition in vivo at 150 mg/kg in the experiment with U-87 MG [11] was determined as 98%.

In turn, `NC1(Cc2ccc(Cl)cc2)CCN(c2ncnc3[nH]ccc23)CC1` showed a GI50 in the experiment on U-87 MG [12] of 6300 nM.

For `CC(C)=CCC1=C(NCCCCN(CN)CCCc2ccccc2)C(=O)c2ccccc2C1=O`, the IC50 came out at 4300 nM in the experiment on U-87 MG [13] and 6600 nM in [14].

`COc1cc(COc2ccc(NC(=O)CCCc3ccc(-c4cccnc4F)cc3)cc2)c([N+](=O)[O-])cc1OC`: the EC50 came to 300 nM in experiment [15], 1300 nM in the experiment with U-251 [16] and 37400 nM in [17].

For `Cc1ccc(-c2nnc(SCC(=O)N3N=C(c4cccs4)CC3c3ccc(Cl)cc3)o2)cc1` (stereo not given), in the experiment on U-251 [18], half-maximal inhibition (IC50) required 11900 nM.

In the experiment with U-251 [19], `CN(C)CCN1C(=O)c2cc(NCCc3ccc(O)c(CN(C)C)c3)c3c4c(cc(NCCc5ccc(O)c(CN(C)C)c5)c(c24)C1=O)C(=O)N(CCN(C)C)C3=O` registered an IC50 of 33 nM.

With `Nc1c(-c2cccnc2)ncc2c1C(=O)c1c(-c3ccccn3)nn(-c3ccc(F)cc3F)c1C2=O`, the IC50 (in the experiment on U-251 [20]; with U-87 MG [21]; in [22]) was 2500 nM each time.

For `C=C1/C(=C/C=C2\CCC[C@]3(C)[C@@H]([C@H](C)CCCCNC(=O)CCC(=O)O)CC[C@@H]23)C[C@@H](O)C[C@@H]1O`, the IC50 stood at 0.457 nM in the experiment on U-251 [23] and 0.016 nM in [24].
